Measured values from ChEMBL document CHEMBL1141547, “Investigations of the esterase, phosphatase, and sulfatase activities of the cytosolic mammalian carbonic anhydrase isoforms I, II, and XIII with 4-nitrophenyl esters as substrates” (Bioorg Med Chem Lett, 2008).

What was measured:
Carbonic anhydrase 13 [1] = biological target: T1, Carbonic anhydrase 13 (Mus musculus, UniProt Q9D6N1); assay: Inhibition of mouse carbonic anhydrase 13 assessed as 4-nitrophenyl phosphate hydrolysis
Carbonic anhydrase 13 [2] = biological target: T1, Carbonic anhydrase 13; assay: Inhibition of mouse carbonic anhydrase 13 assessed as 4-nitrophenyl acetate hydrolysis

T1 sequence (Q9D6N1 whole entry): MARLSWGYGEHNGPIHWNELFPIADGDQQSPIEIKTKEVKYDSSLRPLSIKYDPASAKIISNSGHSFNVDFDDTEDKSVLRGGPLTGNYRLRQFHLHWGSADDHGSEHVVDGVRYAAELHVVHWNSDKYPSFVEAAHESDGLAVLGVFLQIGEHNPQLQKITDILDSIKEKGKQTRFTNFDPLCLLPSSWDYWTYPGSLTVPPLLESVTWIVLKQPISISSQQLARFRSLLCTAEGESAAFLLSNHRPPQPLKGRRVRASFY

IC50 (Carbonic anhydrase 13 [1]): 1050 nM
IC50 (Carbonic anhydrase 13 [2]): 490 nM
SMILES: CC(=O)Nc1nnc(S(N)(=O)=O)s1 [ACETAZOLAMIDE]
